Values of other authors, collected in patent US20090142410A1, “Nutritional composition and method for increasing creatine uptake and retention in skeletal muscle, increasing muscle mass and strength, increasing exercise capacity and for aiding recovery following exercise” (priority 2006, published 2009).

Settings: concomitant ingestion with carbohydrates

CN(CC(=O)O)C(=N)N [Creatine, N-methyl-N-guanyl Glycine]
improvement of Creatine retention: up to 60%
